The target in experiment [1] is T1, RnfG (Methanosarcina acetivorans, UniProt Q8TSY2).
T1 construct: full-length membrane subunit with C-terminal His6 tag (vector leader removed), made in E. coli LMG194, purified from membranes in dodecyl maltoside; isolated subunit of the Rnf complex
Briefly: UV-visible absorbance of purified protein; UV fluorescence in SDS-PAGE gel; boiling and TCA treatment. Format: binding. Particulars: covalent (flavin assigned as FMN, attached at Thr166); 25 µM protein, 25 mM Tris-HCl pH 8.

Experiment [2] deals with T2, RnfG (Methanosarcina acetivorans, UniProt Q8TSY2, T166G).
T2 construct: full-length membrane subunit with C-terminal His6 tag (vector leader removed), made in E. coli LMG194, purified from membranes in dodecyl maltoside; isolated subunit of the Rnf complex
Briefly: protein colour and UV fluorescence of the purified variant. Format: binding. Particulars: removal of the covalent FMN attachment residue.

T2 sequence (Q8TSY2 whole entry T166G): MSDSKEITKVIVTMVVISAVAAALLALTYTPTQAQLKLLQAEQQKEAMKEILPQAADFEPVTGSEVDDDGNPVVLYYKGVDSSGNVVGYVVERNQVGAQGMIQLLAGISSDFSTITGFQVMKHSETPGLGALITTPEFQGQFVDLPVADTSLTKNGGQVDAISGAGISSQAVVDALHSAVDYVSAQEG
T1 sequence (Q8TSY2 whole entry): as the sequence (Q8TSY2 whole entry T166G) above, with G166T counted along it

Take `Cc1cc2nc3c(=O)[nH]c(=O)nc-3n(C[C@H](O)[C@H](O)[C@H](O)COP(=O)(O)O)c2cc1C` [FMN]: at RnfG [1], the “molar ratio of flavin” value turned out to be 0.84 mol/mol. Moreover, at RnfG [2], the colour and fluorescence result is “The purified variant was colorless and failed to fluoresce under UV illumination”.

(Values after PMC4023990, “Characterization of the RnfB and RnfG Subunits of the Rnf Complex from the Archaeon Methanosarcina acetivorans” (PLoS ONE, 2014).)
